The results in this text go back to ChEMBL document CHEMBL5120964, “Novel Antagonist of the Type 2 Lysophosphatidic Acid Receptor (LPA2), UCM-14216, Ameliorates Spinal Cord Injury in Mice” (J Med Chem, 2022).

Data set [1] concerns the target T1, Lysophosphatidic acid receptor 3 (Homo sapiens) (UniProt Q9UBY5).
T1 sequence (whole entry): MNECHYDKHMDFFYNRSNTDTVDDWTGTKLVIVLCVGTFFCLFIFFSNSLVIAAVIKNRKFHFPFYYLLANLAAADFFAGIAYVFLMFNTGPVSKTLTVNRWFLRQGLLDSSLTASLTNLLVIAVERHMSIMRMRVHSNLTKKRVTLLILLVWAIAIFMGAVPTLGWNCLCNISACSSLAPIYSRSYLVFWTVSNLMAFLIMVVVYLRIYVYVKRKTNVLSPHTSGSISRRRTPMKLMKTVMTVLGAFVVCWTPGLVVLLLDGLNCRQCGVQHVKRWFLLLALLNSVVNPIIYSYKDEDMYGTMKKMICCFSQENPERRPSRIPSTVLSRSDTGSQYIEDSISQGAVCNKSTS
Kind of data set: Antagonist activity at LPA3 receptor (unknown origin) expressed in cells assessed as maximal blockade of LPA-induced calcium mobilization at 10 uM measured after 120 secs by Fluo-4 NW dye based assay relative to control. The settings on record: filed as antagonist, time 120.0 sec. It is filed as functional, cell-based.

Data set [2] deals with T2, Lysophosphatidic acid receptor 2 (Homo sapiens, UniProt Q9HBW0). Kind of data set: Antagonist activity at LPA2 receptor (unknown origin) expressed in cells assessed as maximal blockade of LPA-induced calcium mobilization at 10 uM measured after 120 secs by Fluo-4 NW dye based assay relative to control. In kind it is functional, cell-based. As to conditions: filed as antagonist, time 120.0 sec. On the technique in general: A change in cytosolic calcium serves as a functional read-out for many receptors and channels.

Data set [3] deals with T2, Lysophosphatidic acid receptor 2. Description: Antagonist activity at LPA2 receptor (unknown origin) expressed in cells assessed as blockade of LPA-induced calcium mobilization measured after 120 secs by Fluo-4 NW dye based assay. It is filed as functional, cell-based.
Data set [4] is described as follows: Plasma concentration in C57B1/6J mouse at 25 mg/kg, ip measured after 0.5 hrs by HPLC-MS analysis.
Data set [5] relates to Mus musculus. Kind of data set: Protection of spinal cord injury-induced locomotor defect in C57B1/6J mouse model assessed as increase in motor skills at 25 mg/kg, ip treated 35 days after post injury for 10 consecutive days. In kind it is functional, organism-based. The settings on record: time 35.0 day.
Data set [6] deals with Mus musculus. Kind of data set: Protection of spinal cord injury-induced locomotor defect in C57B1/6J mouse model assessed as increase in locomotor activity at 25 mg/kg, ip treated for 10 consecutive days. It is filed as functional, organism-based.
In data set [7] the test system is Mus musculus. Kind of data set: Protection of spinal cord injury-induced locomotor defect in C57B1/6J mouse model assessed as frequent stepping at 25 mg/kg, ip treated 35 days after post injury for 10 consecutive days. In kind it is functional, organism-based. As to conditions: time 35.0 day.
The nature of data set [8]: Metabolic stability in human liver microsomes assessed as half life by HPLC-MS analysis. It is filed as ADME, Microsome. On the technique in general: Liver microsomes are vesicles of endoplasmic reticulum, rich in cytochrome P450 enzymes.

Active and inactive are the calls of the source. No cut-off for these calls is given here.

T2 sequence (Q9HBW0 whole entry): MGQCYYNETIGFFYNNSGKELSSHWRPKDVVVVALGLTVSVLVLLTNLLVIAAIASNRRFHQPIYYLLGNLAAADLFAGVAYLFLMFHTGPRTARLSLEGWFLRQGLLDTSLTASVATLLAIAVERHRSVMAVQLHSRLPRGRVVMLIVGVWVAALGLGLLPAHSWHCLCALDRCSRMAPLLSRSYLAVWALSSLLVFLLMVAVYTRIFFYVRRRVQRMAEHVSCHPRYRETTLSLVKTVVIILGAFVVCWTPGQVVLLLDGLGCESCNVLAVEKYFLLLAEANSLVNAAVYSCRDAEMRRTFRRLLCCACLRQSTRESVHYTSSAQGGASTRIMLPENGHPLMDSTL

For the compound `Cc1noc(-c2ccc(OCC(=O)O)cc2O)c1Oc1ccc(Cl)cc1Cl`, the Emax (as a rule, the greatest response seen or fitted, relative to the assay's reference) in data set [1] is 71%; in data set [2] it was 58%.

On to `Cc1[nH]nc(-c2ccc(OCc3nnn[nH]3)cc2O)c1Oc1ccc(F)cc1F`, for which the IC50 (commonly the concentration at which inhibition is half-maximal) in data set [3] worked out at 31 µM.

`Cc1[nH]nc(-c2ccc(OCc3nnn[nH]3)cc2O)c1Oc1ccc(Cl)cc1Cl` displayed a concentration at 0.5 h in data set [4] of 103000 ng/g. Besides, the result in the data set on Mus musculus [5], with Mus musculus [6] and in the data set on Mus musculus [7] was Active.

Turning to `Cc1[nH]nc(-c2ccc(OCC(=O)O)cc2O)c1Oc1ccc(Cl)cc1Cl`, in data set [8], the t1/2 was 1.02 h.
